{"source": "patent US20240238458A1", "about": "“COMPOUNDS TARGETING FIBROBLAST-ACTIVATION PROTEIN AND METHODS OF USE THEREOF” (Purdue Research Foundation, priority 2021, published 2024)", "tested_on": "phosphorylation of Akt", "assay": "Inhibition of phosphorylation of Akt by FAP5-PI3K inhibitors in TGF-β1 stimulated primary HLF (western blot)", "type": "cell-based", "details": "24 hours and 48 hours of incubation, compounds with non-releasable linkers", "description": "Primary HLF with passage number #˜8 were seeded in Dulbecco's Modified Eagle Medium (DMEM) with 10% fetal bovine serum (FBS) (˜100,000 cells/well) in 12 well plates to achieve ˜80% confluency. The cells were then starved in DMEM with 0.4% FBS for 24 hours, followed by stimulation by 10 ng/mL transforming growth factor-beta 1 (TGF-β1) for 24 hours.\nAfter stimulation, cells were incubated with the FAP5-PI3K inhibitors for 2 hours, followed by replacement of culture media containing 2 ng/mL TGF-β1 and incubated for 24 hours (see FIG. 21) and 48 hours (see FIG. 22). All wells are added with 0.1% of DMSO as vehicle.\nCells were detached using trypsin and lysed with lysis buffer, proteins from cells were extracted for western blot analysis."}
{"smiles": "COc1ncc(-c2ccc3nccc(-c4ccc(COC(=O)NCCNC(=O)CCc5cccc6c5CN(C(=O)C[C@@H]5C[C@@H](C(=O)N7CC(F)(F)C[C@H]7C#N)NC5=O)C6)nc4)c3c2)cc1NS(=O)(=O)c1ccc(F)cc1F", "note": "[FAP5-Carbamate-PI3ki]", "values": [{"measurement": "inhibition of phosphorylation of Akt (pAkt normalized to tAkt)", "result": "consistently performed better than FAP5-Ester-PI3Ki and FAP5-PI3Ki-NR"}]}
